Reference: patent US12312599B2, “Methods, compositions, and kits for producing beige adipocytes and treating metabolic disorders” (MaineHealth, priority 2018, dated 2025)

Test system: FD-MSCs
Assay: PLIN and PPARγ2 immunostaining of differentiated FD-MSC cultures
Assay type: cell-based, human
Settings: SB-treated cultures
Protocol: All assays were performed between 7 and 15 passages. For osteocyte differentiation, mature MSCs were grown in 24 well culture plates to 100% confluency in MesenCult-ACF and induced to differentiate in OsteoLife Complete Osteogenesis Medium (Lifeline Cell Technology) for 21 days prior to staining with Lifeline Alizarin Red Stain to visualize calcium deposition. For chondrocyte differentiation. For beige adipogenic precursor generation, cells were grown in 24 well culture plates to 90% confluence and treated with 5 uM SB413542 (Sigma) and 10 nM human IL-4 (Peprotech) for 2 days. For beige adipogenic induction, adipogenic precursors are differentiated for 3 days with adipogenic medium consisting of T3 (2 nM), insulin (170 nM), rosiglitazone (1 μM), SB413542 (5 uM), IBMX (0.5 mM), dexamethasone (5 μM) and indomethacin (125 μM) in EGM-2 medium (Lonza) supplemented with the BulletKit minus FGF2 (modified from^33). Thereafter, cells are maintained in adipogenic medium without IBMX, dexamethasone and indomethacin. The medium was changed every 3 days and adipocytes were fully differentiated by 9-12 days as determined by lipid accumulation and peak expression of UCP1.
Cell Isolation, Expansion and Differentiation of Interscapular Brown Adipose Tissue Preadipocytes • 1. Prior to adipose cell isolation, warm DMEM, FBS and cell wash buffer to room temperature. • 2. […]

Structure (SMILES): NC(=O)c1ccc(-c2nc(-c3ccc4c(c3)OCO4)c(-c3ccccn3)[nH]2)cc1 [SB, SB431542]
- cells in culture that are mature adipocytes (PLIN and PPARγ2 staining): 87%-88%
